Results from PubChem BioAssay AID2305 (GlaxoSmithKline (GSK), 2010).
“And” between values parts separate entries of the source, which are not always exact repeats. Equal entries are not always repeated.

Tested on: P. falciparum 3D7 growth, pLDH absorbance
Assay: blood-stage malaria parasite growth potency – strain 3D7, dose response (AID 2305)

Structure (SMILES)	IC50
CN(C)CCN(C)Cc1cccc(-c2ccc3c(Nc4ccc(F)cc4Cl)ccnc3c2)c1	110 nM
Cc1cc(=O)c(-c2ccc(Oc3cccc(Cl)c3)cc2)c(C)[nH]1	600 nM
COc1cccc(CNC[C@@H](O)[C@H](Cc2ccccc2)NC(=O)c2cc(C3CCCC3)cc(N3CCCCS3(=O)=O)c2)c1	600 nM
CCC1CN2CCc3c([nH]c4ccccc34)[C@@H]2C[C@@H]1CC1NCCc2cc(OC)c(OC)cc21 (stereo partly drawn)	860 nM and 840 nM
O=C(/C=C/c1ccc(Cl)c(Cl)c1)NCCCCCN1CCCC(CCCNC(=O)Nc2ccc(C(F)(F)F)cc2)C1 (stereo not drawn)	530 nM
COc1cc(NC(=O)N2CCOC(CCN3CCC4(CCc5ccccc54)CC3)(c3ccc(Cl)c(Cl)c3)C2)cc(OC)c1 (stereo not drawn)	820 nM
OC1CCCN(Cc2ccc(-c3ccc(-c4nc5ccccc5[nH]4)cc3)cc2)C1 (stereo not drawn)	840 nM
CC[C@H]1CN2CC[C@H]1C[C@H]2[C@H](OC(=O)c1ccccc1)c1cc(C#N)nc2ccc(OC)cc12	910 nM
Fc1ccc2nc(-c3cccc(-c4ccc(CN5CCN(CCN6CCOCC6)CC5)cc4)c3)[nH]c2c1	310 nM
CC(Cc1ccc(CNC(=O)c2ccc(CC(C)NCCc3cccc(Cl)c3)cc2)cc1)NCCc1cccc(Cl)c1 (stereo not drawn)	700 nM
CN(C(=O)Nc1ccc(C(F)(F)F)cc1)C1CCN(CCCCCNC(=O)/C=C/c2ccc(Cl)c(Cl)c2)CC1	330 nM
Cc1ccc2c(O)c([N+](=O)[O-])c(=O)[nH]c2c1	420 nM
N#Cc1ccc(-c2ccc(OCC(O)CN3CCCN(C(=O)C(c4ccc5c(c4)OCO5)N4CCN(C/C=C/c5ccccc5)CC4)CC3)cc2)cc1 (stereo not drawn)	650 nM
Cc1cccc(-c2cc3cc(Nc4ccnc5cc(-c6nccs6)ccc45)ccc3[nH]2)c1	170 nM
NC(N)=NCC=C(c1ccccc1)c1ccccc1	990 nM
CC(C)C[C@H](NC(=O)[C@H](Cc1ccccc1)NC(=O)CCN1C(=O)COc2ccc(C(=O)O)cc21)C(=O)NC(CC1CCCCC1)C(O)CC(=O)NCCCn1ccnc1 (stereo partly drawn)	970 nM
O=C(C=Cc1ccc(Cl)c(Cl)c1)NC1CCN(CCc2ccccc2)CC1	590 nM
CCN(CC)c1nc(-c2ccccc2)cc(-c2ccccc2)c1C#N	450 nM
CC1CCNc2ccc(Cc3cnc(N)nc3N)cc21 (stereo not drawn)	1040 nM

Structure (SMILES)	IC50
O=C(Nc1ccc(C(F)(F)F)cc1)c1cccc(S(=O)(=O)NC2CCN(CC3CCCCC3)C2)c1 (stereo not drawn)	690 nM
CC(Cc1ccc(Oc2ccccc2)cc1)NCC(O)c1cccc(C(F)(F)F)c1 (stereo not drawn)	670 nM
O=C(Nc1cccc(C2=NCCCN2)c1)Nc1cccc(C2=NCCCN2)c1	560 nM
Clc1ncccc1-c1nc(NCCC(c2ccccc2)c2ccccc2)no1	1000 nM
CC(C)(C)NCCN(Cc1ccc(-c2ccc(C(F)(F)F)cc2)cc1)C(=O)Cn1c(CCc2cccc(F)c2F)nc(=O)c2ccccc21	760 nM
CCOc1ccc(C(=O)Nc2cc3c(c(C(F)(F)F)c2)CCNC3)cc1Cl	1060 nM
O=C(NC1CCC(CCN2Cc3cccc(C(F)(F)F)c3C2)CC1)c1cccc(-c2cccnc2)c1 (stereo not drawn)	1020 nM
CN(C)C(=O)CC(=O)NCc1cccc(Cl)c1	710 nM
Cc1cccc2[nH]c(-c3cccc(-c4cccc(NC(=O)c5cccnc5)c4)c3)nc12	230 nM
COc1ccc2nccc(NN=Cc3cccc(F)c3)c2c1	750 nM
COc1cc2nc(N3CCC(CNC(=O)/C=C/c4cccc(C)c4)CC3)nc(N)c2cc1OC	680 nM
Cc1ccc(CNC(=O)[C@H](Cc2ccccc2)Nc2ccnc(NCC3CCCCC3)n2)cc1	1190 nM
Cc1cc(Nc2ccc(Cl)cc2)n2nc(C(F)(F)F)nc2n1	120 nM
Cc1ccc(C(=O)Cn2nc(-c3ccc(C)c(S(=O)(=O)N4CCCC4)c3)ccc2=O)cc1	510 nM
Cc1cc(N2CCCC2)nc(Nc2ccc(NC(=O)Nc3ccccc3)cc2)n1	160 nM
O=C(NC1CCCCN(Cc2ccc3c(c2)OCCO3)C1)c1cc(-c2ccccc2F)cs1 (stereo not drawn)	1050 nM
O=C(NCc1ccc(Cl)cc1)c1ccc(C(=O)NCC2CCCN2CC2CCCCC2)cc1 (stereo not drawn)	850 nM
CN(C)CCCn1cncc1-c1ccc2ncnc(Nc3ccc4c(cnn4Cc4ccccc4)c3)c2c1	730 nM
Cc1csc(-c2nc(NCCc3c(C)noc3C)ncc2-c2ccsc2)n1	180 nM
